Experimental data from patent US10981879B2, “Thioether triazolopyridine and triazolopyrimidine inhibitors of myeloperoxidase” (BRISTOL-MYERS SQUIBB COMPANY, priority 2014, dated 2021).

Target: myeloperoxidase (MPO) (Homo sapiens (Human), UniProt P05164)
Experiment: MPO chlorination assay (APF)
Type: biochemical
Details: MPO chlorination assay, ranges given; read-out: MPO chlorination assay IC50
Method: MPO chlorination activity was measured in 100 mM KPi (pH 7.4) by utilizing the non-fluorescent reagent Aminophenyl fluorescein (APF, Invitrogen catalog #A36003). APF is cleaved by (—OCl) to yield the fluorescent compound fluorescein. Reactions were carried out in 50 μL total volume by adding a 25 μL mixture of 200 pM myeloperoxidase and 120 mM NaCl to 100 nL inhibitor in 100% DMSO in a 384 well, non-binding surface clear bottom plate (CORNING® #3655). Enzyme, inhibitor, and chloride were preincubated for ten minutes at rt.
After the ten minute preincubation, 25 μL of an APF mixture containing […], 120 mM NaCl and 10 μM H2O2 was added to the plate using the internal dispensing system of a Hammatsu FDSS 6000. Kinetic determinations were carried out immediately on the FDSS 6000 (3 minute kinetic read, 1 read every second, ex: 485 nm, em: 535 nm). IC50 values for inhibitors were calculated by taking the slope of the linear portion of the kinetic measurement (20 seconds to ˜80-120 secs). […]
[formula] where A=minimal Y value (activity level of inhibited sample), B=maximal Y value (activity level of uninhibited sample), C=Log IC50, D=Hill Slope, x=concentration of inhibitor. EPX Bromination Assay

Chain of myeloperoxidase (MPO) (P05164 49-745): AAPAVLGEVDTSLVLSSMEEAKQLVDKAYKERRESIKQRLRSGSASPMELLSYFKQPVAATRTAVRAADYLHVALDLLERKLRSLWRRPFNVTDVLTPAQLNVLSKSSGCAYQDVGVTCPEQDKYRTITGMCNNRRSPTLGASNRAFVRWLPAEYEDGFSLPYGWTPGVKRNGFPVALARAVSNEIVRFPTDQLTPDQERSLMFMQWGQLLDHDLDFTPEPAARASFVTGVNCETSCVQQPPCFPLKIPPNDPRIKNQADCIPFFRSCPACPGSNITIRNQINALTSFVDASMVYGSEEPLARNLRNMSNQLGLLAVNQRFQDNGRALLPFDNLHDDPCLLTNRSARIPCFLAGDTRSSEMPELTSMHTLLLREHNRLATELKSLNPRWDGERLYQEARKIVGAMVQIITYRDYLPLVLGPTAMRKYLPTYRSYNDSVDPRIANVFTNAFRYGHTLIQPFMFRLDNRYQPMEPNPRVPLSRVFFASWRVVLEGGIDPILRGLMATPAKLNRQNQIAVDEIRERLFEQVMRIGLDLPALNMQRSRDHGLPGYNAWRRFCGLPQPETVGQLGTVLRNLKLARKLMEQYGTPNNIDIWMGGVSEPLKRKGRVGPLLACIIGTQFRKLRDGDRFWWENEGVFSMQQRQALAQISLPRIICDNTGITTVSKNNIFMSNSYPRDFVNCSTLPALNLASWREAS

| SMILES | IC50 [nM] |
| --- | --- |
| Nc1cc(SCc2ccccc2)c2nn[nH]c2n1 [Example 1, 7-(Benzylthio)-3H-[1,2,3]triazolo[4,5-b]pyridin-5-amine] | ≤ 60 |
| Nc1cc(SCc2ccccc2Cl)c2nn[nH]c2n1 [Example 4, 7-((2-chlorobenzyl)thio)-3H-[1,2,3]triazolo [4,5-b]pyridin-5-amine] | ≤ 60 |
| Nc1cc(SCc2ccccc2C(F)(F)F)c2nn[nH]c2n1 [Example 5, 7-((2-(trifluoromethyl)benzyl)thio)-3H-[1,2,3] triazolo[4,5-b]pyridin-5-amine] | ≤ 60 |
| Nc1cc(SCc2cccc(F)c2)c2nn[nH]c2n1 [Example 6, 7-((3-fluorobenzyl)thio)-3H-[1,2,3]triazolo [4,5-b]pyridin-5-amine] | ≤ 60 |
| Nc1cc(SCc2ccc(Cl)cc2)c2nn[nH]c2n1 [Example 8, 7-((4-chlorobenzyl)thio)-3H-[1,2,3]triazolo [4,5-b]pyridin-5-amine] | ≤ 60 |
| COc1ccc(CSc2cc(N)nc3[nH]nnc23)cc1 [Example 9, 7-((4-methoxybenzyl)thio)-3H-[1,2,3]triazolo [4,5-b]pyridin-5-amine] | ≤ 60 |
| Nc1cc(SCc2c(F)cccc2F)c2nn[nH]c2n1 [Example 10, 7-((2,6-Difluorobenzyl)thio)-3H-[1,2,3]triazolo[4,5-b]pyridin-5-amine] | ≤ 60 |
| N#Cc1ccc(-n2cccn2)cc1CSc1cc(N)nc2[nH]nnc12 [Example 12, 2-(((5-Amino-3H-[1,2,3]triazolo[4,5-b]pyridin-7-yl)thio)methyl)-4-(1H-pyrazol-1-yl)benzonitrile] | ≤ 60 |
| Nc1cc(SC(CCCNCc2ccccc2)c2ccccc2)c2nn[nH]c2n1 (stereo not shown) [Example 14, 7-((4-(Benzylamino)-1-phenylbutyl)thio)-3H-[1,2,3]triazolo[4,5-b]pyridin-5-amine] | ≤ 60 |
| Nc1cc(SCc2cccc(CN3CCCC3)c2)c2nn[nH]c2n1 [Example 15, 7-((3-(Pyrrolidin-1-ylmethyl)benzyl)thio)-3H-[1,2,3]triazolo[4,5-b]pyridin-5-amine] | ≤ 60 |
| Cn1nc(-c2ccccc2)c(F)c1CSc1cc(N)nc2[nH]nnc12 [Example 17, 7-(((4-Fluoro-1-methyl-3-phenyl-1H-pyrazol-5-yl)methyl)thio)-3H-[1,2,3]triazolo[4,5-b]pyridin-5-amine] | ≤ 60 |
| CS(=O)(=O)c1cc(Cl)ccc1CSc1cc(N)nc2[nH]nnc12 [Example 18, 7-((4-chloro-2-(methylsulfonyl)benzyl)thio)-3H-[1,2,3]triazolo[4,5-b]pyridin-5-amine] | ≤ 60 |
| Nc1cc(SCc2cc(F)ccc2F)c2nn[nH]c2n1 [Example 19, 7-((2,5-difluorobenzyl)thio)-3H-[1,2,3]triazolo[4,5-b] pyridin-5-amine] | ≤ 60 |
| N#Cc1ccc(F)cc1CSc1cc(N)nc2[nH]nnc12 [Example 20, 2-(((5-amino-3H-[1,2,3]triazolo[4,5-b]pyridin-7-yl)thio)methyl)-4-fluorobenzonitrile] | ≤ 60 |
| Nc1cc(SCc2c(F)cc(Cl)cc2F)c2nn[nH]c2n1 [Example 23, 7-((4-chloro-2,6-difluorobenzyl)thio)-3H-[1,2,3]triazolo[4,5-b]pyridin-5-amine] | ≤ 60 |
| Nc1cc(SCc2ccccc2OC(F)(F)F)c2nn[nH]c2n1 [Example 29, 7-((2-(trifluoromethoxy)benzyl)thio)-3H-[1,2,3] triazolo[4,5-b]pyridin-5-amine] | ≤ 60 |
| CS(=O)(=O)c1cc(Br)cc(F)c1CSc1cc(N)nc2[nH]nnc12 [Example 42, 7-((4-bromo-2-fluoro-6-(methylsulfonyl)benzyl)thio)-3H-[1,2,3]triazolo[4,5-b]pyridin-5-amine] | ≤ 60 |
| Nc1cc(SCc2c(F)ccc(Br)c2F)c2nn[nH]c2n1 [Example 43, 7-((3-bromo-2,6-difluorobenzyl)thio)-3H-[1,2,3]triazolo[4,5-b]pyridin-5-amine] | ≤ 60 |
| N#Cc1ccc(CSc2cc(N)nc3[nH]nnc23)c(F)c1 [Example 47, 4-(((5-amino-3H-[1,2,3]triazolo[4,5-b]pyridin-7-yl)thio)methyl)-3-fluorobenzonitrile] | ≤ 60 |

Now from value to compound:

| IC50 [nM] | SMILES |
| --- | --- |
| 60 to 200 | Cn1nc(C2CC2)c(F)c1CSc1cc(N)nc2[nH]nnc12 [Example 16, 7-(((3-Cyclopropyl-4-fluoro-1-methyl-1H-pyrazol-5-yl)methyl)thio)-3H-[1,2,3]triazolo[4,5-b]pyridin-5-amine] |
| 60 to 200 | N#Cc1cc(Br)ccc1CSc1cc(N)nc2[nH]nnc12 [Example 21, 2-(((5-amino-3H-[1,2,3]triazolo[4,5-b]pyridin-7-yl)thio)methyl)-5-bromobenzonitrile] |
| 60 to 200 | Cc1ccc(-c2nc(CSc3cc(N)nc4[nH]nnc34)c(C)s2)cc1 [Example 22, 7-(((5-methyl-2-(p-tolyl)thiazol-4-yl)methyl)thio)-3H-[1,2,3]triazolo[4,5-b]pyridin-5-amine] |
| 60 to 200 | Cc1cc(CSc2cc(N)nc3[nH]nnc23)c(Cl)nc1Cl [Example 24, 7-(((2,6-dichloro-5-methylpyridin-3-yl)methyl)thio)-3H-[1,2,3]triazolo[4,5-b]pyridin-5-amine] |
| 60 to 200 | Nc1cc(SCc2cccc(CO)n2)c2nn[nH]c2n1 [Example 25, (6-(((5-amino-3H-[1,2,3]triazolo[4,5-b]pyridin-7-yl)thio)methyl)pyridin-2-yl) methanol] |
| 200 to 1000 | COC(=O)c1ncccc1CSc1cc(N)nc2[nH]nnc12 [Example 26, methyl 3-(((5-amino-3H-[1,2,3]triazolo[4,5-b]pyridin-7-yl)thio)methyl)picolinate] |
| 200 to 1000 | Nc1cccc(CSc2cc(N)nc3[nH]nnc23)n1 [Example 27, 7-(((6-aminopyridin-2-yl)methyl)thio)-3H-[1,2,3] triazolo[4,5-b]pyridin-5-amine] |
| 60 to 200 | CC(Sc1cc(N)nc2[nH]nnc12)c1ccccc1C(F)(F)F (stereo not shown) [Example 30, 7-((1-(2-(trifluoromethyl)phenyl)ethyl)thio)-3H-[1,2,3]triazolo[4,5-b]pyridin-5-amine] |
| 200 to 1000 | COC(=O)c1ccc2nc(CSc3cc(N)nc4[nH]nnc34)ccc2c1 [Example 31, methyl 2-(((5-amino-3H-[1,2,3]triazolo[4,5-b]pyridin-7-yl)thio)methyl)quinoline-6-carboxylate] |
| 60 to 200 | Nc1cc(SCc2cnn(Cc3ccccc3)c2)c2nn[nH]c2n1 [Example 32, 7-(((1-benzyl-1H-pyrazol-4-yl)methyl)thio)-3H-[1,2,3] triazolo[4,5-b]pyridin-5-amine] |
| 60 to 200 | Cn1nc(-c2ccccc2)cc1CSc1cc(N)nc2[nH]nnc12 [Example 33, 7-(((1-methyl-3-phenyl-1H-pyrazol-5-yl)methyl)thio)-3H-[1,2,3]triazolo[4,5-b] pyridin-5-amine] |
| 60 to 200 | Nc1cc(SCc2cn(-c3ccccc3)nn2)c2nn[nH]c2n1 [Example 34, 7-(((1-phenyl-1H-1,2,3-triazol-4-yl)methyl)thio)-3H-[1,2,3]triazolo[4,5-b]pyridin-5-amine] |
| 60 to 200 | Nc1cc(SCc2ccccc2CS(=O)(=O)c2ccccc2)c2nn[nH]c2n1 [Example 35, 7-((2-((phenylsulfonyl)methyl)benzyl)thio)-3H-[1,2,3]triazolo[4,5-b]pyridin-5-amine] |
| 200 to 1000 | CCn1nc(C(F)(F)F)cc1CSc1cc(N)nc2[nH]nnc12 [Example 36, 7-(((1-ethyl-3-(trifluoromethyl)-1H-pyrazol-5-yl)methyl)thio)-3H-[1,2,3]triazolo[4,5-b] pyridin-5-amine] |
| 200 to 1000 | Cc1oc(-c2c(F)cc(F)cc2F)nc1CSc1cc(N)nc2[nH]nnc12 [Example 37, 7-(((5-methyl-2-(2,4,6-trifluorophenyl)oxazol-4-yl)methyl)thio)-3H-[1,2,3] triazolo[4,5-b]pyridin-5-amine] |
| 200 to 1000 | Nc1cc(SC(c2ccccc2)C(F)(F)F)c2nn[nH]c2n1 (stereo not shown) [Example 38, 7-((2,2,2-trifluoro-1-phenylethyl)thio)-3H-[1,2,3] triazolo[4,5-b]pyridin-5-amine] |
| 200 to 1000 | Nc1cc(SC(C(=O)c2ccccc2)c2ccccc2)c2nn[nH]c2n1 (stereo not shown) [Example 40, 2-((5-amino-3H-[1,2,3]triazolo[4,5-b]pyridin-7-yl)thio)-1,2-diphenylethanone] |
| 60 to 200 | CN(C)CCC(Sc1cc(N)nc2[nH]nnc12)c1ccccc1 (stereo not shown) [Example 44, 7-((3-(dimethylamino)-1-phenylpropyl)thio)-3H-[1,2,3]triazolo[4,5-b]pyridin-5-amine] |
| 60 to 200 | Nc1cc(SC(c2ccccc2)C(O)c2ccccc2)c2nn[nH]c2n1 (stereo not shown) [Example 46, 2-((5-amino-3H-[1,2,3]triazolo[4,5-b]pyridin-7-yl)thio)-1,2-diphenylethanol] |
| 60 to 200 | Nc1cc(SCc2c(Cl)ccnc2Cl)c2nn[nH]c2n1 [Example 48, 7-(((2,4-dichloropyridin-3-yl)methyl)thio)-3H-[1,2,3] triazolo[4,5-b]pyridin-5-amine] |
| 60 to 200 | Nc1cc(SCc2cc(OC(F)(F)F)ccc2F)c2nn[nH]c2n1 [Example 49, 7-((2-fluoro-5-(trifluoromethoxy)benzyl)thio)-3H-[1,2,3]triazolo[4,5-b]pyridin-5-amine] |
